Key:
[1] = tested on: retinoid-responsive elements (RARE); test: RA reporter assay, F9 RARE-lacZ reporter cells; type: cell-based; conditions: 0.3-5.0 µM, 20 h
Excerpt: More typical of retinoic acid is its contribution to cell differentiation during vertebrate embryonic development by interacting with nuclear receptors, which bind to specific retinoid-responsive elements (RARE) within the promoters of subordinate genes, activating their transcription. To verify that retinoate 2 also binds to RARE, we used a reporter assay with F9 teratocarcinoma cells featuring a RARE located within the cis-acting regulatory sequences of the human retinoic acid receptor alpha gene and immediately upstream of the E. coli lacZ genes, which thus acquire retinoid responsivity. LacZ expression in cells treated with various concentrations of 2 was then quantitated by densitometric analysis of β-galactosidase activity visualized by X-Gal staining.
The F9 embryonal carcinoma cell line, stably transfected with the 1.8 kb promoter sequence of RARb2 coupled to the lacZ gene, was used to measure active retinoids. The assay is appropriate for detection of all-trans RA but is able to detect other retinoid isomers as well. The F9 reporter cells were maintained in 10% FCS containing DMEM in the presence of 400 ug/mL G418. A day before the assay, F9 cell were seeded onto 24-well plates (100,000 cell/well). The cells were than treated with various concentrations of 2. […]

U87 glioma cells = test: Apoptosis of U87 glioma cells (calcein/Annexin V-Cy3); type: cell-based, human; conditions: between 1 and 10 µM, 48 h
Procedure: Astroglia cells grown on poly-L-lysine-coated glass cover slips were fixed with 4% paraformaldehyde in PBS for 20 min at room temperature and then permeabilized with Triton X-100 (0.1% v/v in PBS; 5 min). Nonspecific antibodies were blocked by incubation with 3% FBS in PBS (room temperature, 1 h). α-GFAP antibody (rabbit, DAKO) was used in a dilution of 1:2000 and was visualized by anti-rabbit IgG Alexa 594 (1:1000). DAPI (4′,6-diamidino-2-phenylindole) was used for nuclei staining. Fluorescence images were captured manually on a Zeiss Axiovert 200 M microscope fitted with 20- to 60-fold zoom and a Zeiss AxioCam MRm digital camera. Further applied antibodies were tubulin III (Sigma T5076), used at a dilution of 1:1000, and Annexin V. Cy3.18 (Sigma A4963).
Figure 6 U87 glioma cells undergo apoptosis upon 48 h treatment with 10 µM of 2. Cells in the early stages of apoptosis show calcein (green)/Annexin V-Cy3 (red) double labeling. Scale bars: 50 µm; 20 µm for inserts.

CC1=C(/C=C/C(C)=C/C=C/C(C)=C/C(=O)O[C@@H]2C3=C(C)C4(CC4)[C@@](C)(O)C(=O)C3=CC2(C)C)C(C)(C)CCC1 [Compound 2, illudin M retinoate]
activation of F9 RARE-lacZ reporter cells (β-galactosidase, X-Gal staining) [1]: concentration-dependent activation | apoptosis of U87 glioma cells (U87 glioma cells): undergoing rapid apoptosis

— article PMC9408991, “Antitumor Effects of a New Retinoate of the Fungal Cytotoxin Illudin M in Brain Tumor Models” (International Journal of Molecular Sciences, 2022)
